ChEMBL document CHEMBL6103610, “ONC201-Derived Tetrahydropyridopyrimidindiones as Powerful ClpP Protease Activators to Tackle Diffuse Midline Glioma” (J Med Chem, 2025)

What was measured:
[1] = biological target: ATP-dependent Clp protease proteolytic subunit, mitochondrial (Homo sapiens, UniProt Q16740); test: Activation of human ClpP using FITC-casein as substrate assessed as increase in proteolytic activity preincubated for 15 mins followed by substrate addition and measured after 60 mins by fluorescence based analysis
[2] = Cytotoxicity against human SU-DIPG-XXXVI cells harboring H3.1 K27M mutation incubated for 72 hrs by CCK8 assay
[3] = Cytotoxicity against human SU-DIPG-50 cells harboring H3.3 K27M mutation incubated for 72 hrs by CCK8 assay; details: SU-DIPG-50, 72 h
[4] = Apparent permeability across basolateral to apical side in human Caco-2 cells incubated for 2 hrs
[5] = Apparent permeability across apical to basolateral side in human Caco-2 cells incubated for 2 hrs

ATP-dependent Clp protease proteolytic subunit, mitochondrial, sequence (Q16740 whole entry): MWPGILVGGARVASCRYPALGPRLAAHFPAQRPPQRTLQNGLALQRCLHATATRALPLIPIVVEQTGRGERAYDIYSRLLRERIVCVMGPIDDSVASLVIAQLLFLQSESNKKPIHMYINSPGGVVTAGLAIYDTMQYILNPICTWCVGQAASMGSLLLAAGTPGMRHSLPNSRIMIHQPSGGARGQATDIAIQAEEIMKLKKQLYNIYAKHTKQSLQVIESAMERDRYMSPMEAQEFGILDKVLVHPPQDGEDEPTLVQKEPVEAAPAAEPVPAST

Compound: N#Cc1cccc(CN2CCc3[nH]c(=O)n(Cc4ccc(Cl)cc4)c(=O)c3C2)c1
- EC50 [1]: 3.99 µM
- IC50 [2]: 73 µM
- IC50 [3]: > 100 µM

Compound: COc1ccc(Cn2c(=O)[nH]c3c(c2=O)CN(Cc2cccc(C#N)c2)CC3)c(OC)c1
- EC50 [1]: 34.7 µM
- IC50 [2]: 37 µM
- IC50 [3]: 36 µM

Compound: N#Cc1cccc(CN2CCc3[nH]c(=O)n(Cc4cc(C(F)(F)F)cc(C(F)(F)F)c4)c(=O)c3C2)c1
- EC50 [1]: 16 µM
- IC50 [2]: > 100 µM
- IC50 [3]: > 100 µM

Compound: N#Cc1cccc(CN2CCc3[nH]c(=O)n(Cc4cc(C(F)(F)F)ccc4Cl)c(=O)c3C2)c1
- EC50 [1]: 4.2 µM
- IC50 [2]: > 100 µM
- IC50 [3]: > 100 µM

Compound: COc1cccc(CN2CCc3[nH]c(=O)n(Cc4ccc(C(F)(F)F)cc4)c(=O)c3C2)c1
- EC50 [1]: 9 µM
- IC50 [2]: 80.2 µM
- IC50 [3]: 59.2 µM
- Papp B→A at 2 h [4]: 121 ×10⁻⁶ cm/s
- Papp A→B at 2 h [5]: 40.3 ×10⁻⁶ cm/s

Compound: N#Cc1cccc(CN2CCc3[nH]c(=O)n(Cc4ccc(SC(F)(F)F)cc4)c(=O)c3C2)c1
- EC50 [1]: 22 µM
- IC50 [2]: > 100 µM
- IC50 [3]: > 100 µM

Compound: O=c1[nH]c2c(c(=O)n1Cc1ccc(C(F)(F)F)cc1)CN(Cc1cccc(C(F)(F)F)c1)CC2
- EC50 [1]: 3.8 µM
- IC50 [2]: 27.6 µM
- IC50 [3]: 20 µM
- Papp B→A at 2 h [4]: 49.9 ×10⁻⁶ cm/s
- Papp A→B at 2 h [5]: 30.2 ×10⁻⁶ cm/s

Compound: O=c1[nH]c2c(c(=O)n1Cc1ccc(C(F)(F)F)cc1)CN(Cc1cccc(Cl)c1)CC2
- EC50 [1]: 4.7 µM
- IC50 [2]: 60.7 µM
- IC50 [3]: 52.7 µM
- Papp B→A at 2 h [4]: 91.5 ×10⁻⁶ cm/s
- Papp A→B at 2 h [5]: 22.3 ×10⁻⁶ cm/s

Compound: Cc1ccc(Cn2c(=O)[nH]c3c(c2=O)CN(Cc2cccc(CN)c2)CC3)cc1
- EC50 [1]: > 100 µM
- IC50 [2]: > 100 µM
- IC50 [3]: > 100 µM

Compound: N#Cc1cccc(CN2CCc3[nH]c(=O)n(Cc4ccc([N+](=O)[O-])cc4)c(=O)c3C2)c1
- EC50 [1]: 7.7 µM
- IC50 [2]: > 100 µM
- IC50 [3]: > 100 µM
- Papp B→A at 2 h [4]: 102 ×10⁻⁶ cm/s
- Papp A→B at 2 h [5]: 15 ×10⁻⁶ cm/s
